One series deals with RAW264.7 cells. Briefly: Macrophage culture assay: phagocytosis of FITC-conjugated S. aureus. Type of series: cell-based, mouse. Particulars: 10 μmol/L; for Phagocytosis relative change versus control / Phagocytosis MFI: Exp. 1, IFN-γ 0.5 ng/mL; for Phagocytosis MFI: 3 days, control 155 ± 4, mean ± SEM of triplicates. How it is done:
Cells of the mouse macrophage cell line RAW264.7 (ATCC, Manassas, VA, USA) were grown in Dulbecco’s modified Eagles medium supplemented with 10% fetal bovine serum (FBS), 4.5 g/L glucose, 2 mmol/L L-glutamine, 100 U/mL penicillin, 100 µg/mL streptomycin, and 10 mmol/L HEPES. […] After 3 days’ incubation at 37 °C, culture fluids were removed and replaced by warm medium containing 30 μg/mL FITC-conjugated S. aureus. After 30 min incubation in a 5% CO2 incubator, cells were harvested using cold PBS containing 2 mmol/L EDTA, washed, and fixed for 15 min at 4 °C with phosphate buffer containing 4% paraformaldehyde (pH 7.4). FITC-positive cells were determined using a FACSaria II flow cytometer and DIVA 8.0.1 software (Becton Dickinson, San Jose, CA, USA). Phagocytic activity is expressed as the mean fluorescence intensity (MFI) from individual cells.

The nature of a further series: in vivo. How it is done:
To specifically deconjugate glucuronides, 80 μL of plasma sample was incubated with 50 μL of β-glucuronidase solution containing 200 units/mL β-glucuronidase from Escherichia coli (Sigma-Aldrich) for 2 h at 37 °C. The deconjugation reaction was stopped by adding ethyl acetate or by refrigerating the mixture considering the following procedures. This pretreated solution was injected into the two liquid chromatography–mass spectrometry with tandem mass spectrometry (LC-MS/MS) systems after pooling with an internal standard solution of niflumic acid (Sigma-Aldrich) or atropine (Wako Pure Chemical Industries, Osaka, Japan).
For quantification of apigenin, wogonin, wogonoside, hesperetin, naringenin, liquiritigenin, genistein, and luteolin in β-glucuronidase-naive (untreated) plasma, 200 µL plasma samples were pretreated by liquid-liquid extraction using ethyl acetate. The total supernatant was collected, dried, and concentrated using a centrifugal evaporator. The dried residue was then dissolved in 60 μL of the specific HPLC mobile phase used for each analytical method, and a 10 or 20 μL volume injected into the LC-MS/MS system.
For quantification of baicalin, baicalein, and berberine in untreated plasma, 80 µL of plasma was pretreated by solid-phase extraction using Oasis HLB 96-well µElution plate (Waters, Milford, MA, USA). The methanol eluates were collected, dried, and dissolved in 60 μL of the specific HPLC mobile phase. A 10 or 20 μL volume was then injected into the LC-MS/MS system.
For quantification of glycyrrhizic acid and glycyrrhetinic acid in untreated plasma, 100 µL plasma samples were pretreated by deproteinization using methanol. The supernatant was collected, dried, and concentrated using a centrifugal evaporator. The dried residue was then dissolved in 60 μL of the specific HPLC mobile phase used for the analytical method, and a 10 μL volume injected into the LC-MS/MS system.
For quantification of wogonin, wogonoside, hesperetin, naringenin, liquiritigenin, and genistein in treated plasma, the reaction solutions after deconjugation reactions were pretreated by liquid-liquid extraction. The supernatant was dissolved in 120 μL of the specific HPLC mobile phase, and a 10 or 15 μL volume injected into the LC-MS/MS system.
For quantification of apigenin, luteolin, baicalin, baicalein, and berberine in treated plasma, the reaction solutions after deconjugation were pretreated by solid-phase extraction by the method described above, and 10 or 15 μL of the solution dissolved in 50 μL of the specific HPLC mobile phase was injected into the LC-MS/MS system.
Pharmacokinetic parameters of flavonoids and glucuronide metabolites in KRT-administrated plasma with or without β-glucuronidase treatment were analyzed by noncompartmental modeling using Phoenix WinNonlin (version 6.3, Certara L.P., St. Louis, MO, USA) to determine various pharmacokinetic constants, including Cmax, tmax, t1/2, and AUC0–last. The t1/2 was […] loge2/ke, where ke is the terminal elimination rate constant determined from at least three data points on the descending linear limb.

The mark [1] stands for this setting: Sprague-Dawley, rat, in vivo, po.
Setting [2] is: Sprague-Dawley, rat, in vivo, po, 2 g/kg.
[3] abbreviates: Sprague-Dawley, rat, plasma, po, 2 g/kg.

Molecules are shown by their SMILES.

Turning to `O=c1cc(-c2ccc(O)cc2)oc2cc(O)cc(O)c12` [Apigenin, apigenin], in the series with RAW264.7 cells, the “phagocytosis by macrophages (result in words)” value (“phagocytosis by macrophages” for short) is reported as “enhanced”, the “Phagocytosis relative change versus control” value was determined as 3.3 and the “Phagocytosis MFI” value is listed as 507 ± 11. Also, the Tmax in “in vivo” (setting [1]) is given as 10.0 h. Besides, in “in vivo” (setting [2]), the AUC(0-t) was determined as 0.843 ng·h/mL, the Cmax turned out to be 0.14 ng/mL and the Tmax was 4 h.
Take `O=C1C[C@@H](c2ccc(O)cc2)Oc2cc(O)ccc21` [Liquiritigenin, liquiritigenin]: in the series on RAW264.7 cells, the “phagocytosis by macrophages” value is given as “enhanced”, the “Phagocytosis relative change versus control” value was 1.6 and the “Phagocytosis MFI” value worked out at 245 ± 4. Moreover, in “in vivo” (setting [3]), the AUC(0-t) came out at 8.68 ng·h/mL, the Cmax was 2.11 ng/mL and the Tmax came to 4 h.
Take `O=c1cc(-c2ccc(O)c(O)c2)oc2cc(O)cc(O)c12` [Luteolin, luteolin]: in the series with RAW264.7 cells, the “phagocytosis by macrophages” value is on record as “enhanced”, the “Phagocytosis relative change versus control” value came out at 2.6 and the “Phagocytosis MFI” value is listed as 408 ± 22. In the series “in vivo” (setting [1]), the Tmax is 1.00 h and the t1/2 was 11.7 h. In “in vivo” (setting [2]), the AUC(0-t) amounted to 21.3 ng·h/mL, the Cmax came out at 4.7 ng/mL and the Tmax came out at 6 h.
Turning to `CC1(C)[C@@H](O[C@H]2O[C@H](C(=O)O)[C@@H](O)[C@H](O)[C@H]2O[C@@H]2O[C@H](C(=O)O)[C@@H](O)[C@H](O)[C@H]2O)CC[C@]2(C)[C@H]3C(=O)C=C4[C@@H]5C[C@@](C)(C(=O)O)CC[C@]5(C)CC[C@@]4(C)[C@]3(C)CC[C@@H]12` [Glycyrrhizic acid, glycyrrhizic acid], in “in vivo” (setting [3]), the Cmax is 2.88 ng/mL and the Tmax was 1 h.
Turning to `COc1c(O[C@@H]2O[C@H](C(=O)O)[C@@H](O)[C@H](O)[C@H]2O)cc(O)c2c(=O)cc(-c3ccccc3)oc12` [wogonoside, wogonin 7-O-glucuronide], in “in vivo” (setting [3]), the AUC(0-t) stood at 3400 ng·h/mL and the Tmax is 6 h.
On to `O=C1C[C@@H](c2ccc(O)cc2)Oc2cc(O)cc(O)c21` [Naringenin, naringenin], for which, in the series on RAW264.7 cells, the “phagocytosis by macrophages” value is recorded as “enhanced”, the “Phagocytosis relative change versus control” value came to 1.5 and the “Phagocytosis MFI” value came to 236 ± 10. In addition, in “in vivo” (setting [2]), the AUC(0-t) stood at 9.53 ng·h/mL, the Cmax came to 1.34 ng/mL, the Tmax turned out to be 4 h and the half-life was 3.01 h.
On to `COc1ccc([C@@H]2CC(=O)c3c(O)cc(O)cc3O2)cc1O` [Hesperetin, hesperetin], for which, in the series with RAW264.7 cells, the “phagocytosis by macrophages” value is on record as “did not”, the “Phagocytosis relative change versus control” value came to 1.2 and the “Phagocytosis MFI” value is on record as 193 ± 12. In “in vivo” (setting [3]), the AUC(0-t) is 2.83 ng·h/mL, the Cmax is 0.644 ng/mL and the Tmax amounted to 4 h.
For the molecule `O=c1c(-c2ccc(O)cc2)coc2cc(O)cc(O)c12` [Genistein, genistein], in the series on RAW264.7 cells, the “phagocytosis by macrophages” value is given as “enhanced”, the “Phagocytosis relative change versus control” value was 3.4 and the “Phagocytosis MFI” value was found to be 525 ± 22. In “in vivo” (setting [2]), the AUC(0-t) amounted to 9.65 ng·h/mL, the Cmax worked out at 0.998 ng/mL and the Tmax is 24 h. In the series “in vivo” (β-glucuronidase-treated plasma until 6 h after KRT administration, detected at 10 and 24 h), the plasma concentration entry is reported as “below the detection limit”.
With `COc1c(O)cc(O)c2c(=O)cc(-c3ccccc3)oc12` [Wogonin, wogonin], in the series on RAW264.7 cells, the “phagocytosis by macrophages” value is recorded as “enhanced”, the “Phagocytosis relative change versus control” value amounted to 1.7 and the “Phagocytosis MFI” value was 271 ± 16. For the same molecule, in “in vivo” (setting [2]), the AUC(0-t) stood at 71.5 ng·h/mL, the Cmax came to 16.3 ng/mL and the Tmax is 4 h.

Values taken from paper PMC5855550, “Pharmacokinetic Study of Bioactive Flavonoids in the Traditional Japanese Medicine Keigairengyoto Exerting Antibacterial Effects against Staphylococcus aureus” (International Journal of Molecular Sciences, 2018).
